Results on 4 compounds are retold here after patent US6747063B2, “Combination therapy for treatment of erectile dysfunction” (Cellegy Pharmaceuticals, Inc., priority 1996, dated 2004).

Values joined by “and” are separate entries in the source; they are usually repeats but may differ in a detail not shown here. Equal values may be shown once. No end group written: not given here.

The test system of data set [1] is penile erection in patients with previously diagnosed ED. The data set is described as follows: Erectile response (Rigiscan tumescence and rigidity) after intracavernous injection, patients with no prior PGE1. It counts as in vivo, human. The conditions noted are these: Phase 1 (n=9).
Data set [2] deals with penile pain in patients with previously diagnosed ED. The data set is described as follows: Patient-reported drug-related pain after intracavernous injection, patients with no prior PGE1. It is filed as in vivo, human. The conditions noted are these: Phase 2; IC PGE1 5 and 15 μg alone or with SNP 50 μg. As for the experimental part: Patients were fifted with the Rigiscan™ tumescence and rigidity recording device. The patients were injected with the intracavernous (IC) drug using up to 2 different doses (PGE1 alone or in combination with sodium nitroprusside (SNP50 μg)) and monitored in real-time for their erectile response. Patients were only given a second injection (higher dose PGE1) if the response to the first injection was less than 70% of maximum tumescence and rigidity. In addition, patients were asked to report any occurrence of pain specific to the injection, but not related to acute discomfort associated with the needle prick.

The subject of data set [3] is penile pain in patients with prior use of PGE1. The data set is described as follows: Penile pain in patients with clinical history of pain with prostaglandin therapy (case reports). The settings on record: human, in vivo. The procedure: (§1) As detailed below, one of three different modes of administration of NO producing agents were used depending upon the patient. In particular, each of these individuals received a NO donor either through the use of a nitrospray such as Nitrolingual™ or a transdermal patch delivering a NO donor compound, and in three cases, a combination of PGE1 and 50 μg of SNP (in saline or phosphate buffered saline (PBS)).

Data set [4] has as its system penile erection in patients with prior use of PGE1. The data set is described as follows: Erection in patients with clinical history of pain with prostaglandin therapy (case reports). It counts as in vivo, human. The conditions noted are these: Case No. 2; 10 μg PGE1 at home. The procedure:
as §1

Data set [5] has as its system penile pain in patients using PGE1. The settings on record: cited from earlier work.
Data set [6] concerns human cavernous artery and cavernosal smooth muscle. The conditions noted are these: cited from earlier work; for interaction of relaxant effects of the two agents: human cavernous artery and cavernosal smooth muscle; for relaxation response: isolated cavernous artery and corpus cavernosum.
For data set [7] the following is noted: in vivo; cited from earlier work.

For the compound `CCCCC[C@H](O)/C=C/[C@H]1[C@H](O)CC(=O)[C@@H]1CCCCCCC(=O)O` [PGE1, prostaglandin E1], the “patients with a poor response to both injections” value in data set [1] (IC PGE1 5 μg at 1st visit, PGE1 5 μg+SNP 50 μg at 2nd visit) was 4 of 9. Also, in data set [1] (lowest dose of PGE1 alone (5 μg IC)), the “patients who experienced full tumescence” value is on record as 2/9. Besides, in data set [2], the “patients who experienced drug-related pain” value is given as “None”. Further, the duration of pain entry in data set [3] is “three to four hours”. The erectile response entry in data set [4] is “poor response”. Moreover, the “patients reporting a pain response” value in data set [5] (repeated / prolonged use of PGE1) is 40 to 45% and 40-45%. Also, the “individuals with a pain response / frequency of pain per injection” value in data set [5] (single use of PGE1) is recorded as 3 to 10%. In data set [5] (transurethral administration, clinic testing), the “men reporting penile pain” value was 35.7%.
Turning to `[NH-]c1c[n+](N2CCOCC2)no1` [SIN-1, 3-morpholinosydnonimine molsidomine], in data set [6], the “interaction of relaxant effects of the two agents” value was “non-synergistic independent relaxant effects” and the relaxation response entry is given as “capacity to induce complete relaxations”.
`O=[N+]([O-])OCC(CO[N+](=O)[O-])O[N+](=O)[O-]` [glyceryl trinitrate]: the concentration in plasma in data set [7] was 200 to 400 pg/mL.
Turning to “vasoactive intestinal peptide (HSDAVFTDNYTRLRKQMAVKKYLNSILN; ends and bridges not checked; UniProt P01282 125-152, looked up) [VIP]”, in data set [6], the “interaction of relaxant effects of the two agents” value is “non-synergistic independent relaxant effects” and the relaxation response result was “not capable of causing concentration dependent relaxation responses”.
